Values of other authors as cited in patent publication US20160018671A1, “DRUG DELIVERY FROM CONTACT LENSES WITH A FLUIDIC MODULE” (ONEFOCUS TECHNOLOGY, LLC, priority 2013, published 2016).
Structures can show the parent of a compound that is named as a salt.

Details: contact lenses passively impregnated with the drug; for IOP reductions: compared with conventional therapy

Compound	toxicity	IOP reductions
CC(C)(C)NC[C@H](O)COc1nsnc1N1CCOCC1 [timolol maleate]	no toxicity	equivalent to conventional therapy
brimonidine tartrate	no toxicity	equivalent to conventional therapy
